Measured values as given in patent US8592401B2, “Methods and compounds for vitamin D therapy” (Proventiv Therapeutics, LLC, priority 2007, dated 2013).
Like-named read-outs stand apart in the source and are kept apart here.

Experiments:
healthy male humans = settings: cited from earlier work
[1] = test system: rats having adenine-induced kidney failure; test: Serum phosphorous in rats having adenine-induced kidney failure; type: in vivo, Sprague Dawley rats
Description: (§1) Soc. Neph., 17; 107-112]. After 4 weeks, normal diet was given to all animals. A control group receiving normal diet during the entire course of the study was used as normal control animals. After the 4 weeks of adenine diet treatment, animals were dosed i.v. 3×/week for 2 or 8 weeks with calcitriol or 1,25-dihydroxyvitamin D2 at 0.01, 0.05, 0.1, 0.25 and 0.5 mg/kg. Serum, plasma kidney and parathyroid gland were collected after 2 and 8 weeks. iPTH and FGF23 in plasma and serum, respectively, were measured using a commercial Elisa kit. Serum calcium was measured using an ORTHO-CLINICAL VITROS 250 chemistry system or an o-cresolphthalein complexone-based assay. Serum phosphorus was measured using an ORTHO-CLINICAL VITROS 250 chemistry system or an ammonium molybdate-based assay. Fibronectin 1 was measured by real-time PCR from cDNA isolated from kidney.

[2] = test system: rats having adenine-induced kidney failure; set-up: species or system Sprague Dawley rats; settings: rat, in vivo, iv
Description: as §1
(§2) These findings indicate that L25-dihydroxyvitamin D2 appears to be less likely to cause calcemia than 1,25-dihydroxyvitamin D3 at doses that have equivalent efficacy.

Caco-2 cells = settings: cited from earlier work
renal FN1 = test: Renal FN1 (fibronectin 1) expression by real-time PCR in adenine rats; type: in vivo, Sprague Dawley rats; set-up: extent of suppression of renal FN1 expression, compared to calcitriol-treated animals: dose or concentration left out as unconfirmed; settings: after 12 days of treatment; for suppression of renal FN1 expression, comparison of the two compounds: 0.1 mg/kg
Description: as §1

[3] = test system: rats having adenine-induced kidney failure; test: iPTH levels in rats having adenine-induced kidney failure; type: in vivo, Sprague Dawley rats; settings: for suppression of serum PTH (iPTH) levels: adenine treated animals, i.v. 3×/week, after two weeks of dosing
Description: as §1, with “3×/week for 2 or 8 weeks with calcitriol or 1,25-dihydroxyvitamin D2 at 0.01, 0.05, 0.1, 0.25 and 0.5 mg/kg.” left out
For reference, PTH values are also shown for animals in the study fed a normal diet (without adenine).
as §2

C2BBe1 cells = test: Alkaline phosphatase and CYP24 in C2BBe1 cells (real-time PCR); type: cell-based; settings: 100 nM, 10 nM, 8 hours at 37° C.
Description: C2BBe1 cells were treated with […], 100 nM, and 10 nM 1,25-dihydroxyvitamin D2 and calcitriol. Cells were incubated for 8 hours at 37° C. The cells were then lysed in 1 ml of TRIzol reagent. RNA was isolated from cell lysates through phase separation, as per the manufacturer's instructions (INVITROGEN). After cDNA synthesis, real-time PCR was used to quantify alkaline phosphatase and CYP24.

[4] = Stability of compounds in human intestine microsomes; type: in vitro ADME; settings: microsomes 22 mg/ml, NADPH-generating system, 60 min, 37° C.
Description: Equal parts of 0.1 M phosphate buffer (pH 7.4), NADPH, G-6-P, and G-6-P dehydrogenase were mixed to create a NADPH-generating system, and the final concentration of NADPH, G-6-P, and G-6-P dehydrogenase were 0.8 mM, 8 mM and 0.8 U/ml.
1,25-dihydroxyvitamin D2 and calcitriol were added in to the NADPH-generating system. The final concentrations of the two vitamin D compounds were each […]. A reaction was initiated by the addition of the human intestine microsomes (22 mg/ml) after a 5 min pre-incubation of the reaction at 37° C. After incubation for 60 min, the reaction was terminated by addition of cold 100% acetonitrile. An aliquot of the samples was injected into HPLC to determine the % remaining of the compound.

[5] = test system: ESRD human patients undergoing chronic hemodialysis; type: in vivo
Excerpt: Up to 100 ESRD (End Stage Renal Disease) human patients undergoing chronic hemodialysis are studied in a multicenter, double-blind, placebo-controlled study. The selected patients reside in two major metropolitan areas within the continental U.S., have ages between 20 and 75 years, and have a history of secondary hyperparathyroidism. They have been on hemodialysis for at least four months, have a normal (or near normal) serum albumin, and have controlled serum phosphorus (often by using oral calcium phosphate binders).
On admission to the study, each patient is assigned at random to one of two treatment groups. One of these groups receives two consecutive 12-week courses of therapy with 1,25-dihydroxyvitamin D2; the other group receives one 12-week course of therapy with 1,25-dihydroxyvitamin D2 without interruption, by one 12-week course of placebo therapy. Each patient discontinues any 1α,25-dihydroxyvitamin D3 therapy for eight weeks prior to initiating 1,25-dihydroxyvitamin D2 therapy. Throughout this eight-week washout (or control) period and the two subsequent 12-week treatment periods, patients are monitored weekly for serum calcium and phosphorus. Serum intact PTH is monitored weekly or biweekly, and bone-specific serum markers, serum vitamin D metabolites, serum albumin, blood chemistries, hemoglobin and hematocrit are monitored at selected intervals.
During the study, patients undergo routine hemodialysis (three times per week) using a 1.24 mM calcium dialysate and ingest calcium phosphate binders (such as calcium carbonate or calcium acetate) in an amount sufficient to keep serum phosphate maintained in a range of 3.5 to 5.5 mg/dL. Patients who develop persistent mild hypercalcemia or mild hyperphosphatemia during the treatment periods reduce their 1,25-dihydroxyvitamin D2 dosage. […] Such patients are monitored at twice-weekly intervals until the serum calcium or phosphorus is normalized, and resume 1,25-dihydroxyvitamin D2 dosing.

[6] = test system: subjects with low serum 1,25-dihydroxyvitamin D; test: Study in subjects with low serum 1,25-dihydroxyvitamin D (Example 1); type: in vivo, human
Description: 1,25-dihydroxyvitamin D2 is used as a treatment for subjects with low serum 1,25-dihydroxyvitamin D in a study involving 50 adults, ages 18-85 years.
The subjects have serum 1,25-dihydroxyvitamin D levels below 20 pg/dL and complete an eight-week baseline period and then 24 weeks of therapy with orally administered 1,25-dihydroxyvitamin D2.
The initial dose of 1,25-dihydroxyvitamin D2 is 1.0 μg, with increases in steps of 0.5 μg/day permitted after four weeks. The maximum dosage is limited to 5.0 μg/day of 1,25-dihydroxyvitamin D2. Subjects are monitored at regular intervals for plasma iPTH, serum calcium and phosphorus, 24-hour and fasting urinary calcium, bone-specific serum markers, plasma total 1,25-dihydroxyvitamin D2 and routine blood chemistries and hematologies.

DBP = molecular target: T1, DBP (Homo sapiens, UniProt P02774); settings: cited from earlier work
T1 sequence (P02774 17-474): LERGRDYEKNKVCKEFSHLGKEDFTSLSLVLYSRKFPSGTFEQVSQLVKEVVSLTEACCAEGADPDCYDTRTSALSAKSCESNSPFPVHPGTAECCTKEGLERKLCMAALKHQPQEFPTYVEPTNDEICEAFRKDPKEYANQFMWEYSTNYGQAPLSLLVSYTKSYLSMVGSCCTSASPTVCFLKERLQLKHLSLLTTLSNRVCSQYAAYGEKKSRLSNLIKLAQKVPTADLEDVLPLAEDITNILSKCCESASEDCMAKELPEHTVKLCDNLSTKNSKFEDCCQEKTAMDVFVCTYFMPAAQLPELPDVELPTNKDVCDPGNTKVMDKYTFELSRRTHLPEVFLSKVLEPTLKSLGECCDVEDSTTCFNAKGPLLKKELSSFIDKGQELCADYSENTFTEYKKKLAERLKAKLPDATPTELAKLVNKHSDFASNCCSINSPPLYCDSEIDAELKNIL

[7] = cited from earlier work
bone resorption = settings: in vivo; cited from earlier work
[8] = test system: markers of bone metabolism; settings: in culture; cited from earlier work

Question: With `C=C1CC[C@H](O)C/C1=C/C=C1\CCC[C@]2(C)[C@@H]([C@H](C)/C=C/[C@H](C)C(C)C)CC[C@@H]12` [Vitamin D2, ergocalciferol] as the compound, how does the “course of 25-hydroxyvitamin D2 levels” value (healthy male humans; 50,000 IU) read?
Answer: Its value is “fell early and were not different from baseline at 14 days”.

Question: What about the “potency relative to Vitamin D3” value (healthy male humans; healthy male humans) of the same compound?
Answer: The value was “less than one-third as potent”.

Question: Which “time of peak of 25-hydroxyvitamin D3 levels” value (healthy male humans; 50,000 IU) does the source give for `C=C1CC[C@H](O)C/C1=C/C=C1\CCC[C@]2(C)[C@@H]([C@H](C)CCCC(C)C)CC[C@@H]12` [Vitamin D3, cholecalciferol] here?
Answer: Its value is 14 days.

Question: For `C=C1/C(=C\C=C2/CCC[C@]3(C)[C@@H]([C@H](C)CCCC(C)(C)O)CC[C@@H]23)C[C@@H](O)C[C@@H]1O` [calcitriol, 1α,25-dihydroxyvitamin D3], which “elevation of serum phosphorous” value ([1]; rat, in vivo, iv) is on record?
Answer: Its value is “significant elevation of phosphorous at the two highest doses”.

Question: And the “doses showing significant elevation of serum calcium” value ([2]; Sprague Dawley)?
Answer: The value was “greater than 0.10 μg/kg”.

Question: What about the “stimulation of calcium transport” value (Caco-2 cells) of the same compound?
Answer: The value was 934%.

Question: What about the “suppression of renal FN1 expression, comparison of the two compounds” value (renal FN1) of the same compound?
Answer: The value was “No difference in suppression”.

Question: What about the inhibition at 0.0001 mg/kg ([3]; Rattus norvegicus, read-out: PTH inhibition) of the same compound?
Answer: Its inhibition at 0.0001 mg/kg is ~13.6%.

Question: And the “suppression of serum PTH (iPTH) levels” value [3]?
Answer: The value was “in a dose dependant manner can suppress serum PTH levels”.

Question: With `C=C1/C(=C\C=C2/CCC[C@]3(C)[C@@H]([C@H](C)/C=C/[C@H](C)C(C)(C)O)CC[C@@H]23)C[C@@H](O)C[C@@H]1O` [1,25-dihydroxyvitamin D2] as the compound, how does the “elevation of serum phosphorous” value ([1]; adenine rats, i.v. 3×/week, doses 0.01-0.5) read?
Answer: The value was “significance only at the highest dose”.

Question: And the “doses showing significant elevation of serum calcium” value [2]?
Answer: Its value is “greater than 0.05 μg/kg”.

Question: And the “induction of IAP (alkaline phosphatase) activity” value (C2BBe1 cells)?
Answer: Its value is “not a potent inducer of IAP activity”.

Question: What about the “metabolic stability (% remaining) in human intestinal microsomes” value [4] of the same compound?
Answer: Its value is “metabolically unstable”.

Question: And the “suppression of renal FN1 expression, comparison of the two compounds” value (renal FN1)?
Answer: Its value is “No difference in suppression”.

Question: And the “extent of suppression of renal FN1 expression, compared to calcitriol-treated animals” value (renal FN1)?
Answer: The value was “significantly greater”.

Question: What about the “mean serum PTH relative to pretreatment levels” value ([5]; after initiation of dosing) of the same compound?
Answer: The value was “less than 50 % of pretreatment levels”.

Question: And the “mean serum PTH in the active group” value ([5]; end of the second 12-week treatment period)?
Answer: Its value is “remained controlled”.

Question: And the “hypercalcemia in patients exhibiting excessive suppression of serum PTH” value ([5]; human, in vivo)?
Answer: The value was “transient mild hypercalcemia is observed”.

Question: And the “serum 1,25-dihydroxyvitamin D levels between doses” value [6]?
Answer: The value was “within the patients' normal historical physiological range”.

Question: And the “DBP binding compared with 1,25-dihydroxyvitamin D3” value (DBP)?
Answer: The value was “no significant difference”.

Question: And the “suppression of serum PTH (iPTH) levels” value [3]?
Answer: Its value is “in a dose dependant manner can suppress serum PTH levels”.

Question: And the PTH inhibition ([3]; dose of 0.05 μg/kg)?
Answer: The PTH inhibition was “about 82.7%”.

Question: For `C[C@H](/C=C/[C@H](C)C(C)(C)O)[C@H]1CC[C@H]2/C(=C/C=C3C[C@@H](O)C[C@H](O)C3)CCC[C@]12C` [19-nor-1,25-dihydroxyvitamin D2], which half-life ([7]; healthy patients) is on record?
Answer: Its half-life is 4 to 6 h.

Question: And the half-life ([7]; patients with Stage 4 CKD)?
Answer: Its half-life is 20 h.

Question: What about the half-life ([7]; patients with chronic renal failure) of the same compound?
Answer: Its half-life is 15 h.

Question: And the “potency in promoting bone resorption relative to 1,25-dihydroxyvitamin D3” value (bone resorption)?
Answer: Its value is “approximately 10 fold less potent”.

Question: And the “stimulation of calcium transport” value (Caco-2 cells)?
Answer: The value was “did not show a significant effect”.

Question: And the “affinity for DBP compared to 1,25-dihydroxyvitamin D3” value (DBP)?
Answer: Its value is 3 fold lower.

Question: What about the “effects on VDR expression, suppression of cell proliferation, osteocalcin and alkaline phosphatase activity versus 1,25-dihydroxyvitamin D3” value [8] of the same compound?
Answer: The value was “indistinguishable”.
